Assay results taken from the supplement of paper PMC11061612.

What was measured:
[1] = tested on: SNU-C1 (Colorectal Carcinoma); assay: Bliss excess, mean over the matrix (fraction); higher = more synergy
Outline: (§1)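 After 24 hours at 37°C and 5% CO2 in 1536-well plates, cells in DMEM/F12 or RPMI plus 10% FBS received two-drug dose matrices for 72 hours. Viability came from CellTiter-Glo 2.0 luminescence and was scaled as inhibition, anchored at 0 by vehicle wells and at 1 by blank wells. Combination Emax is taken as the second-highest inhibition in the matrix, and Bliss excess as the observed combination effect less EA + EB − EA·EB, with EA and EB the single-agent effects.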

[2] = tested on: NCI-N87 (Gastric Carcinoma); assay: as above
Outline: as §1

[3] = tested on: HSC-2 (Oral Cavity Carcinoma); assay: as above
Outline: as §1

NB7 (Neuroblastoma) [4] = assay: as above
Outline: as §1

[5] = tested on: SCC-9 (Oral Cavity Carcinoma); assay: as above
Outline: as §1

[6] = tested on: KINGS-1 (Low Grade Glioma); assay: as above
Outline: as §1

[7] = tested on: OCUB-M (Breast Carcinoma); assay: as above
Outline: as §1

EW-3 (Ewing's Sarcoma) [8] = assay: as above
Outline: as §1

[9] = tested on: OCUM-1 (Gastric Carcinoma); assay: as above
Outline: as §1

[10] = tested on: TGBC11TKB (Gastric Carcinoma); assay: as above
Outline: as §1

GI-1 (Glioblastoma) [11] = assay: as above
Outline: as §1

[12] = tested on: JHH-7 (Hepatocellular Carcinoma); assay: as above
Outline: as §1

[13] = tested on: VMRC-LCD (Lung Adenocarcinoma); assay: as above
Outline: as §1

[14] = tested on: H-EMC-SS (Chondrosarcoma); assay: as above
Outline: as §1

[15] = tested on: LC4-1 (B-Lymphoblastic Leukemia); assay: as above
Outline: as §1

[16] = tested on: SNU-C1 (Colorectal Carcinoma); assay: combination Emax (second highest fraction inhibited in the dose matrix, 72 h); higher = more inhibition; extreme values may be limits of the assay
Outline: as §1

[17] = tested on: NCI-N87 (Gastric Carcinoma); assay: as above
Outline: as §1

[18] = tested on: HSC-2 (Oral Cavity Carcinoma); assay: as above
Outline: as §1

NB7 (Neuroblastoma) [19] = assay: as above
Outline: as §1

[20] = tested on: SCC-9 (Oral Cavity Carcinoma); assay: as above
Outline: as §1

[21] = tested on: KINGS-1 (Low Grade Glioma); assay: as above
Outline: as §1

[22] = tested on: OCUB-M (Breast Carcinoma); assay: as above
Outline: as §1

EW-3 (Ewing's Sarcoma) [23] = assay: as above
Outline: as §1

[24] = tested on: OCUM-1 (Gastric Carcinoma); assay: as above
Outline: as §1

[25] = tested on: TGBC11TKB (Gastric Carcinoma); assay: as above
Outline: as §1

GI-1 (Glioblastoma) [26] = assay: as above
Outline: as §1

[27] = tested on: JHH-7 (Hepatocellular Carcinoma); assay: as above
Outline: as §1

[28] = tested on: VMRC-LCD (Lung Adenocarcinoma); assay: as above
Outline: as §1

[29] = tested on: H-EMC-SS (Chondrosarcoma); assay: as above
Outline: as §1

[30] = tested on: LC4-1 (B-Lymphoblastic Leukemia); assay: as above
Outline: as §1
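Wherever Bliss excess, mean over the matrix is given: after 72 h of two-drug dosing.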

Compound | Bliss excess [1] | Bliss excess [2] | Bliss excess [3] | Bliss excess (NB7 (Neuroblastoma) [4]) | Bliss excess [5] | Bliss excess [6] | Bliss excess [7] | Bliss excess (EW-3 (Ewing's Sarcoma) [8]) | Bliss excess [9] | Bliss excess [10] | Bliss excess (GI-1 (Glioblastoma) [11]) | Bliss excess [12] | Bliss excess [13] | Bliss excess [14] | Bliss excess [15] | combination Emax [16] | combination Emax [17] | combination Emax [18] | combination Emax (NB7 (Neuroblastoma) [19]) | combination Emax [20] | combination Emax [21] | combination Emax [22] | combination Emax (EW-3 (Ewing's Sarcoma) [23]) | combination Emax [24] | combination Emax [25] | combination Emax (GI-1 (Glioblastoma) [26]) | combination Emax [27] | combination Emax [28] | combination Emax [29] | combination Emax [30]
C=CCn1c(=O)c2cnc(Nc3ccc(N4CCN(C)CC4)cc3)nc2n1-c1cccc(C(C)(C)O)n1 [AZD1775] + CCc1c2c(nc3ccc(O)cc13)-c1cc3c(c(=O)n1C2)COC(=O)[C@]3(O)CC [SN-38] (first compound max 1 µM, partner max 0.3 µM) | -0.0837 | -0.0855 | -0.0298 | 0.0564 | -0.0365 | -0.0275 | 0.0926 | -0.135 | -0.0758 | -0.0338 | -0.0412 | 0.0117 | -0.126 | -0.0137 | -0.0519 | 0.646 | 0.8 | 0.952 | 0.97 | 0.557 | 0.495 | 0.931 | 0.872 | 0.65 | 0.914 | 0.988 | 0.43 | 0.591 | 0.561 | 0.934
C=CCn1c(=O)c2cnc(Nc3ccc(N4CCN(C)CC4)cc3)nc2n1-c1cccc(C(C)(C)O)n1 [AZD1775] + Nc1ccn([C@@H]2O[C@H](CO)[C@@H](O)C2(F)F)c(=O)n1 [Gemcitabine] (first compound max 1 µM, partner max 0.3 µM) | -0.0308 | -0.0481 | 0.0227 | 0.0441 | 0.0215 | -0.0065 | 0.0679 | 0.0204 | 0.0616 | 0.0011 | 0.0649 | -0.0298 | -0.0497 | 0.014 | 0.0478 | 0.485 | 0.735 | 0.947 | 0.721 | 0.375 | 0.341 | 0.955 | 0.904 | 0.656 | 0.918 | 0.916 | 0.399 | 0.6 | 0.649 | 0.945
